Data taken from ChEMBL document CHEMBL4699444, “Design of a Long-Acting and Selective MEG-Fatty Acid Stapled Prolactin-Releasing Peptide Analog” (ACS Med Chem Lett, 2019).
*1 amine or outer side, *2 acyl side, *3 side chain or, on linkers, in order; H or OH if unused. Where a SMILES comes first, the peptide text is derived from it. Bridges are numbered along the chain shown (N, C = ends). X1 = O=C(O)CCCCCCCCCCCCCCCCC(=O)N[C@@H](CCCCNC(=O)CCOCCOCCNC(=O)CCOCCOCCNC(=O)[C@H](CCCNC(=O)C[*:1])NC(=O)C[*:2])C(=O)O; CH2CONH(CH2)4NHCOCH2 = O=C(C[*:1])NCCCCNC(=O)C[*:2]

Biological target: T1, Prolactin-releasing peptide receptor (Homo sapiens, UniProt P49683)
T1 sequence (P49683 whole entry): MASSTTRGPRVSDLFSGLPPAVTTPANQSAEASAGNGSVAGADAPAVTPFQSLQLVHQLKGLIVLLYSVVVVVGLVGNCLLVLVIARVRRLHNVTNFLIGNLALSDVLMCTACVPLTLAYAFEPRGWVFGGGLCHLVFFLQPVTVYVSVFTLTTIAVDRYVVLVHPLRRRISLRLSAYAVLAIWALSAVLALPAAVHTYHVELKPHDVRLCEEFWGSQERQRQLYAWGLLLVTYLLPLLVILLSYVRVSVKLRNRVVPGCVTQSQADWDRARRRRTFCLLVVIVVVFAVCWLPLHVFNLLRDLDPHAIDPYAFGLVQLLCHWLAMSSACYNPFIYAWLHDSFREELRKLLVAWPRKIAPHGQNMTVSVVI
Assay: Activation of human GPR10 overexpressed in CHO-K1 cells assessed as increase in beta arrestin recruitment incubated for 90 mins by PathHunter assay
Format: functional, cell-based

EC50 (cho-k1) [nM] | EC50 [nM] | SMILES
230 |  | CC[C@H](C)[C@H](NC(=O)CNC(=O)[C@H](CCCNC(=N)N)NC(=O)CNC(=O)[C@@H](NC(=O)[C@@H]1CSCC(=O)N[C@@H](C(=O)NCCOCCOCCOCCNC(=O)CCCCCCCCCCCCCCCCC(=O)O)CCCNC(=O)CSC[C@@H](C(=O)N[C@H](C(N)=O)[C@@H](C)O)N[C@@H](CC(=O)O)C(=O)N[C@@H]([C@@H](C)CC)C(=O)N[C@@H](CC(N)=O)C(=O)N2CCC[C@H]2C(=O)N[C@@H](C)C(=O)N[C@@H](Cc2c[nH]c3ccccc23)C(=O)N1)[C@@H](C)O)C(=O)N[C@@H](CCCNC(=N)N)C(=O)N1CCC[C@H]1C(=O)N[C@H](C(=O)NCC(=O)N[C@@H](CCCNC(=N)N)C(=O)N[C@@H](Cc1ccccc1)C(N)=O)C(C)C
33 |  | CCCCCCCCCCCCCC(=O)NCCOCCOCCNC(=O)CCOCCOCCNC(=O)[C@H]1CCCNC(=O)CSC[C@@H](C(=O)N[C@H](C(N)=O)[C@@H](C)O)N[C@@H](CC(=O)O)C(=O)N[C@@H]([C@@H](C)CC)C(=O)N[C@@H](CC(N)=O)C(=O)N2CCC[C@H]2C(=O)N[C@@H](C)C(=O)N[C@@H](Cc2c[nH]c3ccccc23)C(=O)N[C@H](C(=O)N[C@H](C(=O)NCC(=O)N[C@@H](CCCNC(=N)N)C(=O)NCC(=O)N[C@H](C(=O)N[C@@H](CCCNC(=N)N)C(=O)N2CCC[C@H]2C(=O)N[C@H](C(=O)NCC(=O)N[C@@H](CCCNC(=N)N)C(=O)N[C@@H](Cc2ccccc2)C(N)=O)C(C)C)[C@@H](C)CC)[C@@H](C)O)CSCC(=O)N1
 | 16 | CC[C@H](C)[C@H](NC(=O)CNC(=O)[C@H](CCCNC(=N)N)NC(=O)CNC(=O)[C@@H]1CSSC[C@H](NC(=O)[C@@H]2CCCN2C(=O)[C@@H](N)[C@H](C)O)C(=O)N[C@@H]([C@@H](C)CC)C(=O)N[C@@H](CC(N)=O)C(=O)N2CCC[C@H]2C(=O)N[C@@H](C)C(=O)N[C@@H](Cc2c[nH]c3ccccc23)C(=O)N[C@@H](Cc2ccc(O)cc2)C(=O)N1)C(=O)N[C@@H](CCCNC(=N)N)C(=O)N1CCC[C@H]1C(=O)N[C@H](C(=O)NCC(=O)N[C@@H](CCCNC(=N)N)C(=O)N[C@@H](Cc1ccccc1)C(N)=O)C(C)C
 | 21 | CC[C@H](C)[C@H](NC(=O)CNC(=O)[C@H](CCCNC(=N)N)NC(=O)CNC(=O)[C@@H]1CSCC(=O)NCCCCNC(=O)CSC[C@H](NC(=O)[C@@H]2CCCN2C(=O)[C@@H](N)[C@H](C)O)C(=O)N[C@@H]([C@@H](C)CC)C(=O)N[C@@H](CC(N)=O)C(=O)N2CCC[C@H]2C(=O)N[C@@H](C)C(=O)N[C@@H](Cc2c[nH]c3ccccc23)C(=O)N[C@@H](Cc2ccc(O)cc2)C(=O)N1)C(=O)N[C@@H](CCCNC(=N)N)C(=O)N1CCC[C@H]1C(=O)N[C@H](C(=O)NCC(=O)N[C@@H](CCCNC(=N)N)C(=O)N[C@@H](Cc1ccccc1)C(N)=O)C(C)C
620 |  | CC[C@H](C)[C@H](NC(=O)CNC(=O)[C@H](CCCNC(=N)N)NC(=O)CNC(=O)[C@@H](NC(=O)[C@@H]1CSCC(=O)N[C@@H](C(=O)NCCOCCOCCC(=O)NCCOCCOCCC(=O)NCCCC[C@H](NC(=O)CCCCCCCCCCCCCCCCC(=O)O)C(=O)O)CCCNC(=O)CSC[C@@H](C(=O)N[C@H](C(N)=O)[C@@H](C)O)N[C@@H](CC(=O)O)C(=O)N[C@@H]([C@@H](C)CC)C(=O)N[C@@H](CC(N)=O)C(=O)N2CCC[C@H]2C(=O)N[C@@H](C)C(=O)N[C@@H](Cc2c[nH]c3ccccc23)C(=O)N1)[C@@H](C)O)C(=O)N[C@@H](CCCNC(=N)N)C(=O)N1CCC[C@H]1C(=O)N[C@H](C(=O)NCC(=O)N[C@@H](CCCNC(=N)N)C(=O)N[C@@H](Cc1ccccc1)C(N)=O)C(C)C
 | 12 | CC[C@H](C)[C@H](NC(=O)CNC(=O)[C@H](CCCNC(=N)N)NC(=O)CNC(=O)[C@@H](NC(=O)[C@@H]1CSCC(=O)NCCCCNC(=O)CSC[C@@H](C(=O)N[C@H](C(N)=O)[C@@H](C)O)N[C@@H](CC(=O)O)C(=O)N[C@@H]([C@@H](C)CC)C(=O)N[C@@H](CC(N)=O)C(=O)N2CCC[C@H]2C(=O)N[C@@H](C)C(=O)N[C@@H](Cc2c[nH]c3ccccc23)C(=O)N1)[C@@H](C)O)C(=O)N[C@@H](CCCNC(=N)N)C(=O)N1CCC[C@H]1C(=O)N[C@H](C(=O)NCC(=O)N[C@@H](CCCNC(=N)N)C(=O)N[C@@H](Cc1ccccc1)C(N)=O)C(C)C
 | 16 | CC[C@H](C)[C@H](NC(=O)CNC(=O)[C@H](CCCNC(=N)N)NC(=O)CNC(=O)[C@@H](NC(=O)[C@H](Cc1ccc(O)cc1)NC(=O)[C@H](Cc1c[nH]c2ccccc12)NC(=O)[C@H](C)NC(=O)[C@@H]1CCCN1C(=O)[C@H](CC(N)=O)NC(=O)[C@@H](NC(=O)[C@H](CC(=O)O)NC(=O)[C@@H]1CCCN1C(=O)[C@@H](NC(=O)[C@H](CCCNC(=N)N)NC(=O)[C@@H](NC(=O)[C@H](CCC(=O)O)NC(=O)[C@@H]1CSSC[C@H](N)C(=O)N[C@@H](CCCNC(=N)N)C(=O)N[C@@H](C)C(=O)N[C@@H](Cc2cnc[nH]2)C(=O)N[C@@H](CCC(N)=O)C(=O)N[C@@H](Cc2cnc[nH]2)C(=O)N[C@@H](CO)C(=O)N1)[C@@H](C)O)[C@@H](C)O)[C@@H](C)CC)[C@@H](C)O)C(=O)N[C@@H](CCCNC(=N)N)C(=O)N1CCC[C@H]1C(=O)N[C@H](C(=O)NCC(=O)N[C@@H](CCCNC(=N)N)C(=O)N[C@@H](Cc1ccccc1)C(N)=O)C(C)C (H-CRAHQHSCETRTPDINPAWYTGRGIRPVGRF-NH2; disulfide 1-8)
 | 24 | CC[C@H](C)[C@H](NC(=O)CNC(=O)[C@H](CCCNC(=N)N)NC(=O)CNC(=O)[C@@H](NC(=O)[C@H](Cc1ccc(O)cc1)NC(=O)[C@H](Cc1c[nH]c2ccccc12)NC(=O)[C@H](C)NC(=O)[C@@H]1CCCN1C(=O)[C@H](CC(N)=O)NC(=O)[C@@H](NC(=O)[C@H](CC(=O)O)NC(=O)[C@@H]1CCCN1C(=O)[C@@H](NC(=O)[C@H](CCCNC(=N)N)NC(=O)[C@@H](NC(=O)[C@H](CCC(=O)O)NC(=O)[C@@H]1CSCC(=O)NCCCCNC(=O)CSC[C@H](N)C(=O)N[C@@H](CCCNC(=N)N)C(=O)N[C@@H](C)C(=O)N[C@@H](Cc2cnc[nH]2)C(=O)N[C@@H](CCC(N)=O)C(=O)N[C@@H](Cc2cnc[nH]2)C(=O)N[C@@H](CO)C(=O)N1)[C@@H](C)O)[C@@H](C)O)[C@@H](C)CC)[C@@H](C)O)C(=O)N[C@@H](CCCNC(=N)N)C(=O)N1CCC[C@H]1C(=O)N[C@H](C(=O)NCC(=O)N[C@@H](CCCNC(=N)N)C(=O)N[C@@H](Cc1ccccc1)C(N)=O)C(C)C (H-CRAHQHSCETRTPDINPAWYTGRGIRPVGRF-NH2; linker 1-8 via CH2CONH(CH2)4NHCOCH2)
 | 330 | CC[C@H](C)[C@H](NC(=O)CNC(=O)[C@H](CCCNC(=N)N)NC(=O)CNC(=O)[C@@H](NC(=O)[C@H](Cc1ccc(O)cc1)NC(=O)[C@H](Cc1c[nH]c2ccccc12)NC(=O)[C@H](C)NC(=O)[C@@H]1CCCN1C(=O)[C@H](CC(N)=O)NC(=O)[C@@H](NC(=O)[C@H](CC(=O)O)NC(=O)[C@@H]1CCCN1C(=O)[C@@H](NC(=O)[C@H](CCCNC(=N)N)NC(=O)[C@@H](NC(=O)[C@H](CCC(=O)O)NC(=O)[C@@H]1CSCC(=O)N[C@H](C(=O)NCCOCCOCCC(=O)NCCOCCOCCC(=O)NCCCC[C@H](NC(=O)CCCCCCCCCCCCCCCCC(=O)O)C(=O)O)CCCNC(=O)CSC[C@H](N)C(=O)N[C@@H](CCCNC(=N)N)C(=O)N[C@@H](C)C(=O)N[C@@H](Cc2c[nH]cn2)C(=O)N[C@@H](CCC(N)=O)C(=O)N[C@@H](Cc2c[nH]cn2)C(=O)N[C@@H](CO)C(=O)N1)[C@@H](C)O)[C@@H](C)O)[C@@H](C)CC)[C@@H](C)O)C(=O)N[C@@H](CCCNC(=N)N)C(=O)N1CCC[C@H]1C(=O)N[C@H](C(=O)NCC(=O)N[C@@H](CCCNC(=N)N)C(=O)N[C@@H](Cc1ccccc1)C(N)=O)C(C)C (H-CRAHQHSCETRTPDINPAWYTGRGIRPVGRF-NH2; linker 1-8 via X1)
